Experimental data taken from patent US12022830B2, “Formulations of metal and ascorbic acid complexes, their obtaining and use” (INTERMAG SP. Z O.O., priority 2017, dated 2024).

Assays:
[1] = system: cereal leaf beetle; assay: Infestation of wheat by cereal leaf beetle; type: in vivo; details: foliar, 32.6 g TiO(Asc)2.2H2O/ha, three dates
[2] = system: Gibberella avenacea; assay: Infestation of wheat spikes by Gibberella avenacea; type: in vivo; details: sprayed plants, control 10%
Source text: (§1) In the case of diseases attacking spikes, on the control combination, infestation by Cladosporium herbarum at 20%, by Septoria nodorum at 10% and by Gibberella avenacea at 10% were found. On sprayed plants, infestations were 1%, 1% and 0% respectively.

[3] = system: butterhead lettuce; assay: Cultivation of butterhead lettuce, uptake of nutrients; type: in vivo; details: aboveground parts, dry mass, 20th day, two sprays, 0.0085% Ti
Protocol: TiO(OH)(C6H7O6).1H2O was used in the amount of 9.7 g/ha (0.005%, 0.0085% Ti), (TiO(C6H7O6)2.2H2O) was used in the amount of 16.3 g/ha (0.008%, 0.0085% Ti), TiO(C6H7O6)3.3H2O was used in the amount of 22.9 g/ha (0.011%, 0.0085% Ti), TiO(C6H7O6)4.5H2O was used in the amount of 30.9 g/ha (0.015%, 0.0085% Ti) in a single spray after previously dissolving them in 200 l of water. The spraying was performed with a manual sprayer at the smallest possible drop setting. Plants were sprayed evenly from a distance of about 30 cm.
Substrate: a mixture of peat deacidified with chalk (producer: Hollas) and rinsed quartz sand with a granulation of 4-8 mm. Volume ratio of the mixture: 1:4. Agrofoska (Intermag) fertiliser in the amount of 3 kg/m^3 was added to the substrate. Pots with a volume of about 3 l were used.
Spraying was performed twice with the preparation with the same concentrations of working liquid: spray 1 on the 7th day of the experiment; spray 2 on the 14th day of the experiment.
The experiment was randomised and there were 10 repetitions for each combination (1 repetition=one pot)
(§2) The content of nutrients was tested in the aboveground parts of plants, based on dry mass content.

[4] = system: Alternaria brassicae; details: foliar, 32.6 g TiO(Asc)2.2H2O/ha, three dates
Protocol: (§3) The experiments on the effect of the formulations according to the invention (liquid preparation obtained after dissolving the solid blend, according to the invention) were performed on winter oilseed rape, winter wheat and corn plants at the Institute of Plant Protection in Poznan at the Experimental Station in Winna Góra.

[5] = system: winter oilseed rape of Artoga type; details: foliar, 32.6 g TiO(Asc)2.2H2O/ha, BBCH 21-36, 50-61, 69-73
Protocol: as §3

[6] = system: cabbage seed weevil; details: foliar, 32.6 g TiO(Asc)2.2H2O/ha, three dates
Protocol: as §3

[7] = system: wheat of Figura type; details: foliar, 32.6 g TiO(Asc)2.2H2O/ha, BBCH 22-29, 30-51, 51-73
Protocol: as §3

[8] = system: Botrytis cinerea; details: foliar, 32.6 g TiO(Asc)2.2H2O/ha, three dates
Protocol: as §3

[9] = system: corn of Wilga type; details: foliar, 32.6 g TiO(Asc)2.2H2O/ha, BBCH 12-14, 18-20, 35-39
Protocol: as §3

[10] = system: corn borer moth; assay: Infestation of corn by corn borer moth; type: in vivo; details: foliar, 32.6 g TiO(Asc)2.2H2O/ha, three dates
[11] = system: fragility of stem base; assay: Infestation of wheat through the fragility of stem base; type: in vivo; details: treated plants; control 48% infested plants
[12] = system: Septoria nodorum; assay: Infestation of wheat spikes by Septoria nodorum; type: in vivo; details: sprayed plants, control 10%
Source text: as §1

[13] = Study of solution stability for a given complex; type: physicochemical
[14] = system: Cladosporium herbarum; assay: Infestation of wheat spikes by Cladosporium herbarum; type: in vivo; details: sprayed plants, control 20%
Source text: as §1

[15] = system: Iceberg cabbage lettuce (Lactuca sativa) of Rubette type; assay: Titanyl ascorbates in cultivation of iceberg lettuce, head mass, chlorophyll, flavonoids; type: in vivo; details: foliar twice, 0.00085% Ti, total 3.4 g Ti/ha
Protocol: Iceberg cabbage lettuce (Lactuca sativa) of Rubette type was cultivated in a plastic tunnel in pots with a capacity of 3 l filled with a peat substrate. […] In two applications, the total titanium dose per hectare was 3.4 g Ti/ha. The experiment was performed in a random block system, combinations were drawn in 4 blocks. […] Flavonoids are antioxidant compounds, they protect plant cell structures against reactive oxygen species formed under the influence of abiotic and biotic stress factors. These compounds are the first to be synthesised when unfavourable conditions of the growing environment occur.

[16] = system: wheat; assay: Cultivation of wheat, chlorophyll content and uptake of nutrients; type: in vivo; details: for Content of chlorophyll in leaves: 20th day of the experiment; for Fe content / K content / P content / Ti content / Zn content: aboveground parts, dry mass, 20th day
Protocol: Experiments for the use of titanium complex in the solid formulation TiO(Asc)2.2H2O on wheat were performed analogously to Example 14.
as §2

[17] = system: fusarium foot and root rot; assay: Fusarium foot and root rot on wheat; type: in vivo; details: sprayed plants; control 12% of infestations
[18] = system: rape; assay: Cultivation of rape, vegetative mass and uptake of nutrients; type: in vivo; details: for Number of plant leaves / Total wet mass of the aboveground part / Wet mass of leaves / Wet mass of stem: 20th day of the experiment; for Fe content / Mg content / Mn content / P content / Si content / Ti content / Zn content: aboveground parts, dry mass, 20th day
Protocol: Experiments for the use of titanium complex for rape were performed analogously to Example 14.
as §2

[19] = 5% solution obtained by dissolving in water

With `O.O.O=C1OC(C(O)CO)C([O-])=C1O.O=C1OC(C(O)CO)C([O-])=C1O.[O]=[Ti+2]` (stereo not drawn) [TiO(C6H7O6)2•2H2O, titanyl ascorbate] as the compound, how does the “decrease in the infestation by cereal leaf beetle in comparison to untreated plants” value [1] read?
The value was 74%.

And the “infestation by Gibberella avenacea” value [2]?
Its value is 0%.

What about the B content [3] of the same compound?
Its B content is 83.31 mg/kg.

What about the Ca content [3] of the same compound?
Its Ca content is 17.41 g/kg.

What about the Cu content [3] of the same compound?
The Cu content was 7.13 mg/kg.

And the Fe content [3]?
The Fe content was 794.44 mg/kg.

And the K content [3]?
Its K content is 7.48 g/kg.

And the Mg content [3]?
Its Mg content is 6.66 g/kg.

And the Mn content [3]?
The Mn content was 687.51 mg/kg.

And the S content [3]?
The S content was 7.41 g/kg.

What about the Ti content [3] of the same compound?
Its Ti content is 4.27 mg/kg.

And the Zn content [3]?
Its Zn content is 154.18 mg/kg.

What about the “Infestation of siliques by Alternaria brassicae smaller than the control combination” value [4] of the same compound?
Its value is 52%.

And the “Rape yield increased compared to the control combination” value [5]?
Its value is 15%.

What about the “Siliques damaged by cabbage seed weevil fewer than in the control combination” value [6] of the same compound?
The value was 80%.

What about the “Wheat yield increased compared to the control combination” value [7] of the same compound?
Its value is 16 % (m/m).

And the “Infestation of siliques by Botrytis cinerea smaller than the control combination” value [8]?
The value was 77%.

What about the “Corn yield increased compared to the control combination” value [9] of the same compound?
The value was 13 % (m/m).

And the “decrease in the infestation by corn borer moth in comparison to untreated plants” value [10]?
The value was 43%.

And the “infestation through the fragility of stem base” value [11]?
The value was 4%.

What about the “infestation by Septoria nodorum” value [12] of the same compound?
The value was 1%.

What about the “stable during long storage” value [13, 19] of the same compound?
The value was “up to 12 months”.

What about the “temperature at which the solution remains stable” value [13, 19] of the same compound?
Its value is −5 to +40 °C.

And the “behaviour after freezing and thawing” value ([13]; 5% solution, overcooled below −7° C., then raised above 0° C.)?
Its value is “retains its original physicochemical properties”.

What about the “stability of the solution among the complexes” value ([13]; complexes in the form of solutions) of the same compound?
Its value is “most stable”.

And the “infestation by Cladosporium herbarum” value [14]?
The value was 1%.

What about the Chlorophyll [15] of the same compound?
Its Chlorophyll is 27.4 μg/cm^2.

And the Dry mass [15]?
The Dry mass was 7.23 g.

And the Flavonoids [15]?
Its Flavonoids is 0.32 μg/cm^2.

And the Mass of head [15]?
The Mass of head was 82.8 g.

What about the “Content of chlorophyll in leaves” value [16] of the same compound?
Its value is 48.03 SPAD.

And the Fe content [16]?
The Fe content was 85.056 mg/kg.

What about the K content [16] of the same compound?
Its K content is 55.27 g/kg.

What about the P content [16] of the same compound?
The P content was 10.43 g/kg.

What about the Ti content [16] of the same compound?
Its Ti content is 1.390 mg/kg.

What about the Zn content [16] of the same compound?
The Zn content was 48.850 mg/kg.

What about the “symptoms of fusarium foot and root rot” value [17] of the same compound?
The value was “not any symptoms”.

Which “Content of chlorophyll in leaves” value [16] does the source give for titanyl ascorbate [TiO(C6H7O6)4•5H2O] here?
The value was 47.06 SPAD.

And the Fe content [16]?
Its Fe content is 100.910 mg/kg.

What about the K content [16] of the same compound?
Its K content is 53.29 g/kg.

What about the P content [16] of the same compound?
The P content was 10.09 g/kg.

And the Ti content [16]?
The Ti content was 1.150 mg/kg.

What about the Zn content [16] of the same compound?
The Zn content was 44.290 mg/kg.

For `O.O=C1OC(C(O)CO)C([O-])=C1O.[OH-].[O]=[Ti+2]` (stereo not drawn) [TiO(OH)(C6H7O6)•1H2O, titanyl ascorbate], which “Number of plant leaves” value [18] is on record?
The value was 8.28.

And the “Total wet mass of the aboveground part” value [18]?
Its value is 38.3.

What about the “Wet mass of leaves” value [18] of the same compound?
Its value is 19.00 g.

And the “Wet mass of stem” value [18]?
The value was 21.53 g.

What about the Fe content [18] of the same compound?
The Fe content was 1957.19 mg/kg.

And the Mg content [18]?
Its Mg content is 8.859 g/kg.

What about the Mn content [18] of the same compound?
Its Mn content is 1350.53 mg/kg.

And the P content [18]?
Its P content is 8.74 g/kg.

And the Si content [18]?
Its Si content is 118.21 mg/kg.

What about the Ti content [18] of the same compound?
The Ti content was 1.55 mg/kg.

And the Zn content [18]?
Its Zn content is 362.63 mg/kg.

And the “Content of chlorophyll in leaves” value [16]?
Its value is 47.17 SPAD.

What about the Fe content [16] of the same compound?
Its Fe content is 96.280 mg/kg.

What about the K content [16] of the same compound?
The K content was 57.21 g/kg.

What about the P content [16] of the same compound?
Its P content is 9.86 g/kg.

What about the Ti content [16] of the same compound?
The Ti content was 1.444 mg/kg.

What about the Zn content [16] of the same compound?
The Zn content was 47.880 mg/kg.

What does the source list for titanyl ascorbate [TiO(C6H7O6)3•3H2O]?
B content [3]: 72.35 mg/kg; Ca content [3]: 17.84 g/kg; Cu content [3]: 5.46 mg/kg; Fe content [3]: 842.63 mg/kg; K content [3]: 6.97 g/kg; Mg content [3]: 6.03 g/kg; Mn content [3]: 757.37 mg/kg; Si content [3]: 257.62 mg/kg; Ti content [3]: 2.37 mg/kg; Zn content [3]: 155.38 mg/kg; Number of plant leaves [18]: 7.94; Total wet mass of the aboveground part [18]: 39.61; Wet mass of leaves [18]: 17.74 g; Wet mass of stem [18]: 21.58 g; Fe content [18]: 1739.07 mg/kg; Mg content [18]: 7.86 g/kg; Mn content [18]: 1440.47 mg/kg; P content [18]: 11.43 g/kg; Si content [18]: 159.40 mg/kg; Ti content [18]: 1.07 mg/kg; Zn content [18]: 413.68 mg/kg; Content of chlorophyll in leaves [16]: 45.60 SPAD; Fe content [16]: 97.390 mg/kg; K content [16]: 57.22 g/kg; P content [16]: 9.47 g/kg; Ti content [16]: 1.311 mg/kg; Zn content [16]: 51.410 mg/kg
